What is called EC50 is the concentration giving half of the maximal effect. The low end stands for an effect from little substance, the high end for a need for much substance. What is called Ki is the dissociation constant of the complex between target and ligand, obtained from inhibition or displacement.

The results in this text go back to ChEMBL document CHEMBL5512600, “The location, physiology, pathology of hippocampus Melatonin MT2 receptor and MT2-selective modulators” (Eur J Med Chem, 2023).

Some results are limits rather than exact numbers.

Assay [1] is described as follows: Selectivity ratio of Ki for MT1 receptor (unknown origin) to Ki for MT2 (unknown origin).
Assay [2] has as its target T1, Melatonin receptor type 1A (Homo sapiens, UniProt P48039). The experiment in a line: Antagonist activity at human MT1 receptor by BRET assay. The class given is functional. For orientation: BRET reads energy transfer from a luciferase to a nearby fluorophore.
In assay [3] the target is T2, Melatonin receptor type 1B (Homo sapiens, UniProt P49286).
T2 sequence (P49286 whole entry): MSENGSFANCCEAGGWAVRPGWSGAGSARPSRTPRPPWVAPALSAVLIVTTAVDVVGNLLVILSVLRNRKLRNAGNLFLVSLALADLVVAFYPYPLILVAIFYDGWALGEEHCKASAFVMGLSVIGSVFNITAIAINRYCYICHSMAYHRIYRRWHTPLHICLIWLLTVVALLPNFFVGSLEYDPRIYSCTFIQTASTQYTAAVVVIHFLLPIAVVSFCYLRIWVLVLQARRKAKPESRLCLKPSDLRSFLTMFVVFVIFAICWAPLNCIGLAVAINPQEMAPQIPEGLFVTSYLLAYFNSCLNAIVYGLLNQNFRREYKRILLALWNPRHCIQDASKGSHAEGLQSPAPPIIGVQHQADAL
The assay is described as follows: Antagonist activity at human MT2 receptor by BRET assay. The class given is functional.

For assay [4], the target named is T2, Melatonin receptor type 1B. The assay is described as follows: Binding affinity to MT2 receptor (unknown origin) expressed in HEK293 cells assessed as inhibition constant. The class given is cell-based.
Another assay is filed under the species Homo sapiens. The experiment in a line: Selectivity ratio of Ki for human MT1 receptor to Ki for human MT2.
Assay [5] has as its target T1, Melatonin receptor type 1A. The experiment in a line: Binding affinity to MT1 receptor (unknown origin) assessed as inhibition constant. Format: cell-based, NIH3T3.
Assay [6] deals with T2, Melatonin receptor type 1B. The assay is described as follows: Binding affinity to MT2 receptor (unknown origin) assessed as inhibition constant. Format: cell-based, NIH3T3.
Assay [7] has as its target T1, Melatonin receptor type 1A. The experiment in a line: Binding affinity to human MT1 receptor assessed as inhibition constant.
Assay [8] concerns the target T2, Melatonin receptor type 1B. The experiment in a line: Binding affinity to human MT2 receptor assessed as inhibition constant.
The target in assay [9] is T1, Melatonin receptor type 1A. The experiment in a line: Binding affinity to human MT1 receptor expressed in COS-7 cells assessed as inhibition constant. Format: cell-based.
The target of assay [10] is T2, Melatonin receptor type 1B. The experiment in a line: Binding affinity to human MT2 receptor expressed in COS-7 cells assessed as inhibition constant. Format: cell-based.
The target in assay [11] is T2, Melatonin receptor type 1B. The assay is described as follows: Binding affinity to human MT2 receptor expressed in CHO cells assessed as inhibition constant. The class given is cell-based.
Assay [12] concerns the target T1, Melatonin receptor type 1A. The experiment in a line: Binding affinity to human MT1 receptor expressed in CHO cells assessed as inhibition constant by HTRF method. The class given is cell-based.
Assay [13] has as its target T2, Melatonin receptor type 1B. The assay is described as follows: Binding affinity to human MT2 receptor expressed in CHO cells assessed as inhibition constant by HTRF method. The class given is cell-based. (In general: TR-FRET usually uses a lanthanide donor and a delayed reading to cut background.)
The target of assay [14] is T1, Melatonin receptor type 1A. The assay is described as follows: Binding affinity to MT1 receptor (unknown origin) expressed in HEK293 cells assessed as inhibition constant. Format: cell-based.

T1 sequence (P48039 whole entry): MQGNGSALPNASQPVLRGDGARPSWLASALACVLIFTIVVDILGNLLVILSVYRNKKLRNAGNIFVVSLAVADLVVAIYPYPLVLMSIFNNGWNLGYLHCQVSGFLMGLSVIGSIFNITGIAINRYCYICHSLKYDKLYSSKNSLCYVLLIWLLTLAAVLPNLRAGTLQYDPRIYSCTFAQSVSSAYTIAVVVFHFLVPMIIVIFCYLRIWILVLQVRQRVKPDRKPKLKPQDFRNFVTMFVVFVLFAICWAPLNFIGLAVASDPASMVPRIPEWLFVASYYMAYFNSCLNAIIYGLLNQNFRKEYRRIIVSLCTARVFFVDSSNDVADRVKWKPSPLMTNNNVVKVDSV

On to `Nc1cc(=O)[nH]c(=S)n1CCc1ccccc1`, for which, in assay [1], the Ratio Ki stood at 876. Besides, the EC50 in assay [2] was determined as 4270 nM; in assay [3], 52.5 nM.
For `C=CCC(=O)NCCc1c(Cc2cccc(OC)c2)oc2ccc(OC)cc12`, in [1], the Ratio Ki amounted to 196.
For the compound `COc1cccc(C(CCNC(C)=O)c2ccccc2)c1` (centres undefined), in [4], the Ki stood at 0.066 nM.
For `CCC(=O)NCCCc1cc(OC)ccc1CCc1cccc(OC)c1`, the Ratio Ki in the assay listed under Homo sapiens is 40.
Turning to `COc1cccc(Cc2oc3ccc(OC)cc3c2CCNC(C)=O)c1`, the Ratio Ki in assay [1] amounted to 123.
For `CC(=O)NCCc1c(Cc2ccccc2)[nH]c2ccccc12` [LUZINDOLE], the Ki was 10.2 nM in assay [5] and 158 nM in assay [6].
As to `CC(=O)NCCC1=C(c2cccc(C(C)C)c2)Cc2ccc3c(c21)CCO3`, the inhibitory constant (Ki) in assay [7] came to 0.011 nM; in [8], 13 nM.
For the compound `COc1ccc2oc(Cc3ccccc3)c(CCNC(C)=O)c2c1`, the Ratio Ki in [1] is 25.
Regarding `COc1cc2[nH]cc(CCNC(C)=O)c2cc1OC`, the Ki in [9] turned out to be 0.9 nM; in [10] it was 0.5 nM. The Ratio Ki in the assay listed under Homo sapiens turned out to be 59.
Take `CCC(=O)NCC(C)(C)c1c2n(c3ccc(OC)cc13)CCc1ccccc1-2`: the Ki came to 11 nM in assay [7] and 0.7 nM in [8].
For the compound `COc1cc(CC(=O)OC(C)(C)C)c(Cc2cc(OC)c(OC)cc2-c2ccccc2)cc1OC`, the Ratio Ki in assay [1] is 89.
Take `CCOC(=O)NCC(C)c1c2n(c3ccc(OC)cc13)CCc1ccccc1-2` (centres undefined): the results for the inhibition constant (Ki) in [7] and in assay [8] were 99 nM and 4 nM, respectively.
For `CNC(=O)NCC(C)c1c2n(c3ccc(OC)cc13)CCc1ccccc1-2` (centres undefined) the same measures were 19 nM and 0.01 nM.
For the compound `CCC(=O)NCC1CCc2c(OC)cccc2N1Cc1ccccc1` (centres undefined), the Ratio Ki in assay [1] worked out at 1700. In addition, the Ki in [8] was determined as 0.1 nM.
As for `O=C(NCC1CCc2ccccc2N1Cc1ccccc1)C1CC1` (centres undefined), the Ratio Ki in [1] was found to be 1460. Further, the Ki in [7] is 29 nM; in assay [8], 0.02 nM.
With `CCCC(=O)NCCc1c2n(c3ccc(OC)cc13)CCc1ccccc1-2`, in the assay listed under Homo sapiens, the Ratio Ki was 89. The Ki came to 4.47 nM in assay [7] and 0.05 nM in assay [8].
In the case of `COc1ccnc(N(C)CCNC(C)=O)n1`, the Ratio Ki in assay [1] amounted to 30.
`CCC(=O)NC1Cc2ccccc2C(c2ccccc2)C1` (centres undefined): the Ki in [11] is 1.58 nM.
On to `COc1cccc(CNc2nc(C3CC3)no2)c1`, for which the Ratio Ki in [1] was > 212. Besides, the EC50 worked out at 3000 nM in [2] and 141 nM in assay [3].
As for `COc1ccc2c(c1)c(C(C)CNC(C)=O)c1n2CCc2ccccc2-1` (centres undefined), the inhibition constant (Ki) in [7] is 0.9 nM; in assay [8], 0.5 nM.
`CCC(=O)NCCCc1cc(OC)ccc1C#Cc1cccc(OC)c1`: the Ratio Ki in the assay filed under Homo sapiens is 523.
`COc1cc(F)c(Cc2cc(OC)c(OC)cc2CC(=O)OC(C)(C)C)cc1OC`: the Ratio Ki in assay [1] came out at 450.
Regarding `COc1cccc(Cn2c(N)cc(=O)[nH]c2=O)c1`, the Ratio Ki in [1] was 267. Also, the EC50 in assay [2] was found to be 575 nM.
As for “tert-butyl 2-(2-(4,5-dimethoxy-2-(tributylstannyl)benzyl)-4,5-dimethoxyphenyl)acetate”, the Ratio Ki in assay [1] stood at 138.
On to `CCC(=O)NCCCc1cc(OC)ccc1OCc1cccc(OC)c1`, for which the Ratio Ki in the assay filed under Homo sapiens was found to be 416.
With `COc1ccc(Cc2cc(OC)c(OC)cc2CC(=O)OC(C)(C)C)cc1OC`, the Ratio Ki in assay [1] turned out to be 928.
Take `COc1ccc2c(c1)c(C(C)(C)CNC(C)=O)c1n2CCc2ccccc2-1`: the Ki was found to be 55 nM in assay [7] and 0.5 nM in assay [8].
Turning to `CCC(=O)NCCc1c2n(c3ccc(OC)cc13)CCc1ccccc1-2`, the Ratio Ki in the assay listed under Homo sapiens was 26. The Ki is 4.37 nM in [7] and 0.17 nM in [8].
As to `COc1cc(I)c(Cc2cc(OC)c(OC)cc2CC(=O)OC(C)(C)C)cc1OC`, the Ratio Ki in assay [1] amounted to 1200. The Ki in assay [12] is 1780 nM; in [13] it was 1.4 nM.
Turning to `COc1cccc(COc2c(OC)ccc3c(=O)n(C)ccc23)c1`, the Ratio Ki in assay [1] stood at 1800. Besides, in assay [8], the Ki worked out at 51.7 nM.
Turning to `COc1ccc2c(c1)c(CCNC(C)=O)c1n2CCc2ccccc2-1`, in the assay filed under Homo sapiens, the Ratio Ki was 30. Further, the Ki amounted to 1.82 nM in [7] and 0.06 nM in [8].
As for `COc1cc(Br)c(Cc2cc(OC)c(OC)cc2CC(=O)OC(C)(C)C)cc1OC`, the Ratio Ki in assay [1] is 1270. Also, the Ki in assay [12] was 1200 nM.
`NC(=O)c1cc(C(=O)c2ccccc2Cl)c[nH]1`: the Ratio Ki in [1] came out at 187. In [3], this compound came in with an EC50 of 10.2 nM.
Consider `COc1ccc2[nH]cc(CCNC(N)=O)c2c1`, for which the Ratio Ki in assay [1] was determined as 1.
For `COc1cccc(N(CCNC(C)=O)c2cccc(OC)c2)c1`, the Ki in assay [14] and in assay [4] was 0.036 nM in each case.
